One series deals with fibroblast cells. The series can be described thus: MTT test, cytotoxicity. In kind it is cell-based. Conditions: 24 h, read-out: IC50 against fibroblast cells. How it is done:
The cytotoxicity of the IA was investigated during 24 h at various concentrations against fibroblast cell lines using the MTT test. […].
The MTT Reagent was purchased from Biospes (Biospes, China, Cat n#BAR1005-1), and used according to the manufacturer’s instructions. Twenty-four hours prior to the MTT experiment, breast cancer cell lines (MCF-7 Cell Line) were seeded at a concentration of 5 × 10^4 cells per well in 96-well microplates to facilitate microplate adherence. Various agent concentrations were administered to the cultured cells. The cells were treated with 10 μL of MTT solution, and 100 μL of serum-free medium was added to every well. The plate was kept at 37 °C for 4 h in a CO2 incubator. Then, each well received 100 μL of formazan diluent buffer. The plate was incubated at 37 °C for the entire night after being wrapped in foil and given a 15-min orbital shake. An ELISA plate reader (Stat Fax 2200, Awareness Technologies, Palm City, FL, USA) was used to measure color absorbance in the OD range of 450–630 nm.
For every sample, the mean of the three readings was computed. Cell survival was calculated at the very end using the following equation:(1) % of cell viability= Asample/Acontrol×100
Acontrol is the absorbance of the cell culture after treatment with formazan buffer and MTT without added any drug. […]

The next series deals with COX-1. Briefly: Western blotting of COX-1.
A further series has as its target T1, human recombinant COX-2 (Homo sapiens, UniProt P35354).
T1 construct: purchased Cayman Chemical Item No. 560131
T1 sequence (P35354 18-604): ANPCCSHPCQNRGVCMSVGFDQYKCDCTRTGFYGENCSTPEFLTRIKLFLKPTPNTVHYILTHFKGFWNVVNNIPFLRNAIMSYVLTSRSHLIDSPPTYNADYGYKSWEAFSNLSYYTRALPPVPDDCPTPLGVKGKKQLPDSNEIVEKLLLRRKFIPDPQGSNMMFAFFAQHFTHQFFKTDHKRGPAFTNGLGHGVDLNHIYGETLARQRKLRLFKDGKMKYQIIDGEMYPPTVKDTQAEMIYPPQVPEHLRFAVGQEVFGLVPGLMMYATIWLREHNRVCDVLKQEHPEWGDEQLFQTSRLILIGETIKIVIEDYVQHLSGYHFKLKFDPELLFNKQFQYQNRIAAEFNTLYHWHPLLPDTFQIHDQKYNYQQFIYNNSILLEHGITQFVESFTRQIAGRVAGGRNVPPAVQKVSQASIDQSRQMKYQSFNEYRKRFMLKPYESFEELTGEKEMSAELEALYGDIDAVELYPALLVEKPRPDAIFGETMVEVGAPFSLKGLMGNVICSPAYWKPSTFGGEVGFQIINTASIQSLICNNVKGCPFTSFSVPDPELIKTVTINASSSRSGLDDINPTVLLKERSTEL
The series can be described thus: COX-2 inhibition, ELISA kit. In kind it is biochemical. How it is done:
(§1) The compounds’ abilities were evaluated in vitro to inhibit ovine COX-1 and human recombinant COX-2 isozymes using ELISA [46].

A short description of series [1]: Solubility in different solvents. Conditions: qualitative. The series is classed as physicochemical.
The target in a further series is T2, ovine COX-1 (Ovis aries, UniProt P05979).
T2 construct: purchased Cayman Chemical Item No. 560131
T2 sequence (P05979 25-600): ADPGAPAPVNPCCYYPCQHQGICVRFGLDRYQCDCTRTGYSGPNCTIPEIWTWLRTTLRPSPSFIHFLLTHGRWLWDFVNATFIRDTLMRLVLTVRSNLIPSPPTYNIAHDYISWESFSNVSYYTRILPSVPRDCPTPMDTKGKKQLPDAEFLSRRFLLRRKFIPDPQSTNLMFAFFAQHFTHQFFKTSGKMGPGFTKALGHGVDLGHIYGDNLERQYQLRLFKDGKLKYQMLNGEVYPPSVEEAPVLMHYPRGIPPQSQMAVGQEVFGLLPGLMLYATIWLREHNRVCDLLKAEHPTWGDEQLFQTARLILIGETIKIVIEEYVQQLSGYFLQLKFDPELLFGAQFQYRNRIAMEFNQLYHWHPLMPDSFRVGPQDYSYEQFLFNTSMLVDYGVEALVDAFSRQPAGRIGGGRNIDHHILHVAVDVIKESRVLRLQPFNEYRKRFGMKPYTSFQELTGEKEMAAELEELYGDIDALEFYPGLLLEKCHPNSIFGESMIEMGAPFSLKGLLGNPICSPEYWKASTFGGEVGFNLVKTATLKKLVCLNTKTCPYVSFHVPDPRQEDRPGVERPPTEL
The series can be described thus: COX-1 inhibition, ELISA kit. In kind it is biochemical. As to conditions: average of three determinations. How it is done: as §1

Structures are written as SMILES. Where two headings read alike, the source gives them in different places.

`CC(C)Cc1ccc(C(C)C(=O)O)cc1` (stereo not drawn) [Ibuprofen, reference compound]: the IC50 in the series on fibroblast cells came to 31.4 µM; in the series with COX-1 it was […].
Turning to `CC(=O)CC(C)=NNC(=O)C(C)c1ccc(CC(C)C)cc1` (stereo not drawn) [IA, (E)-2-(4-isobutylphenyl)-N′-(4-oxopentan-2-ylidene) propane hydrazide], the melting point was 135 °C. Also, the “COX-2 S.I.” value on human recombinant COX-2 (Selectivity index (COX-1 IC50/COX-2 IC50)) was found to be 2.8. Also, the IC50 on human recombinant COX-2 (average of three determinations) stood at 3.6 µM. The Solubility in solvents entry in series [1] is “soluble in alcohols, DMSO, and DMF”. On ovine COX-1, this compound had an IC50 of 10.2 µM. The IC50 with fibroblast cells (MTT test) was 3.43 µM. Further, it took 0.946 µM to reach half-maximal inhibition in the series with COX-1 (IC50).
